Patent US10907219B2, “Compositions and methods for controlling cellular function” (STC.UNM, priority 2014, dated 2021)
“Also recorded” adds a separate entry of the source.

Columns and labels:
Type in all cases: cell-based
[1] = tested on: NES-ABI and PYL-eGFP in CHO cells; test: H2O2-induced ABA-mediated eGFP nuclear exporting (NES localization)
Procedure: Various cellular events are regulated by the dynamic sub-cellular translocation of proteins. To test if protein translocation can be controlled by H2O2, we used a known ABA-inducible eGFP nuclear exporting system consisting of NES-ABI and PYL-eGFP DNA constructs (FIG. 2a; Liang et al., 2011, Sci. Signal. 4, rs2). CHO cells were transfected with both plasmids for 24 hours and then incubated without additive, or with 10 μM of ABA, ABA-HP, or ABA-HP plus 10 eq of H2O2 for one hour.
NES localization experiments: CHO cells were seeded in 24-well plates at 50 K/well with coverslip for 24 hours. 0.4 μg NES-ABI and 0.2 μg eGFP-PYL (FIG. 2a, ii) of DNA plasmid were used for each well, with 30 μL of Opti-MEM (Life Technologies, Carlsbad, Calif.) and 1.8 μL of PEI. After incubation at room temperature for 15 min, the mixture was added to the cells and cultured for 24 hours. Then, 10 μM ABA-HP was added to the cells 10 minutes prior to the addition of 10 μM ABA and 100 μM of H2O2, or 10 μM GA-HP was added to the cells 10 minutes prior to the addition of 10 μM GA-AM and 100 μM of H2O2. Slides were made 30 minutes after addition of compounds and images were taken the next day.
An Axio Observer D1 fluorescent microscope (Carl Zeiss AG, Oberkochen, Germany) outfitted with HBO 100 microscopy illumination system (Carl Zeiss AG, Oberkochen, Germany; GFP: excitation 470/40 and emission 525/50) was used to analyze GFP expression and NES localization. A 20× objective was used to analyze GFP expression. A 63× objective was used for NES localization.

[2] = tested on: HEK 293T inducible EGFP reporter cell line (VP-PYL and GAL4DBD-ABI); test: Light-induced EGFP expression
Source text: To confirm that the photo-regenerated ABA is biologically functional, we determined whether it can be employed to induce PYL-ABI dimerization in an ABA-inducible transcriptional activation system using an established HEK 293T inducible EGFP reporter cell line. The cell line was created with both the ABA-responsive split transcriptional activator DNA fragment (VP-PYL and GAL4DBD-ABI linked by IRES; Liang et al., 2011, Sci. Signal. 4, rs2) and an inducible EGFP DNA fragment (with 5×UAS and the IL-2 minimal promoter) inserted into the genome (FIG. 21A). EGFP expression was activated through the recruitment of VP16AD to the EGFP gene in the presence of ABA. 24 hours after plating the cells, 10 μM of ABA, pre-irradiated ABA-DMNB products, or non-irradiated ABA-DMNB were separately added to the cells and incubated for an additional eight hours. EGFP expression was then determined using a fluorescence microscopy.
Cell culture and transfection: CHO cells and HEK 293T EGFP reporter cells (provided by Dr. Gerald R. Crabtree) were cultured in Dulbecco's modified Eagle's medium (DMEM; GIBCO, Life Technologies, Carlsbad, Calif.) with 10% FBS (Atlanta Biologicals, Inc., Norcross, Ga.), 1×GlutaMAX (GIBCO, Life Technologies, Carlsbad, Calif.), and 1× penicillin/streptomycin (Pen/Strep; GIBCO, Life Technologies, Carlsbad, Calif.). 15,000-50,000 ells were plated in a 24-well or 8-well plate for 24 hours before transfection. DNA constructs (0.1 μg-0.5 μg) were added to 50× (v/w) Opti-MEM (GIBCO, Life Technologies, Carlsbad, Calif.), and then 3× (v/w) PEI (Polysciences, Inc., Warrington, Pa.) was mixed with the DNA. The mixture was incubated for 20 minutes at room temperature before adding it to cell cultures. The cells were grown for one day after transfection before experiments were performed.
Photo-irradiation: Irradiation at 365 nm was performed with an Axio Observer (Carl Zeiss AG, Oberkochen, Germany) microscope with an HBO103 W/2 mercury arc lamp (Carl Zeiss AG, Oberkochen, Germany). Irradiation was performed by using a DAPI filter (Carl Zeiss AG, Oberkochen, Germany), set with peak excitation at 365 nm (power density: 23 mW cm^2) and a spectral width of 50 nm. No objective lens was used for whole-well irradiation, which created an area of illumination that nearly completely covered one well of a 24-well plate. Light was transmitted through the bottom of the well of polystyrene plate. Irradiation at 405 nm was performed by using an adjustable focus violet purple laser pointer (LazerPoint SKU 0733579), with an excitation wavelength of 405 nm and 1000 mW intensity positioned 8 cm above the bottom of either a 96-well or 24-well plate and irradiated through the polystyrene lid. […]

[3] = tested on: EGFP-PYL and NES-ABI in CHO cells; test: Light-induced EGFP-PYL nuclear export (fixed cells); conditions: for subcellular location of EGFP-PYL: CHO cells; for reversibility of EGFP nuclear exportation: washed with fresh media
Procedure: The ability to use light to control protein translocation through ABA-DMNB uncaging was evaluated next. Plasmids expressing EGFP-tagged PYL and nuclear export sequence (NES) peptide-linked ABI (FIG. 22A) were transfected into CHO cells. The transfected cells were then either treated or not treated with ABA, ABA-DMNB, or ABA-DMNB and irradiated for 60 seconds. Fluorescence microscopy analysis was used to determine subcellular locations of EGFP fusion proteins. […] Furthermore, the observed nuclear export of EGFP fusion protein can be readily reversed by washing away the uncaged ABA using fresh media. Thus, protein translocation can be induced by light through photo-uncaged ABA and can be readily reversed.
Slide preparation: Cells were grown on glass coverslips in 24-well plates. The coverslips were washed with phosphate-buffered saline (PBS) and fixed with 4% paraformaldehyde (PFA, 300 μL, prepared in PBS) at room temperature for 20 min. The cells were then washed twice with PBS and incubated with 1×DAPI in the dark at the room temperature for 5 min. After a final wash with PBS, the coverslips were mounted on a glass slide with VECTASHIELD (Vector Laboratories, Inc., Burlingame, Calif.) mounting media and allowed to stand for two hours in the dark before imaging.
Fluorescence microscopy imaging: Slides were imaged with an Axio Observer (Carl Zeiss AG, Oberkochen, Germany) microscope or with am LSM 510 Meta confocal microscope (Carl Zeiss AG, Oberkochen, Germany) mounted on an AxioObserver inverted microscope with a 63× oil objective. Images were taken with DAPI and GFP channels.
Statistical analysis of cell population: Cell were categorized as displaying nuclear export of EGFP when the fluorescent intensity of the nucleus was less than 60% of the intensity of the cytoplasm. […] Cells were counted from three separate experiments, with N>50 for each experiment.

[4] = tested on: CHO cells transfected with ABA-inducible luciferase constructs; test: ABA-inducible luciferase assay
[5] = 10 μM, compound alone, CHO cells
[6] = 10 μM, not irradiated, eight hours

CC1=CC(=O)CC(C)(C)C1(O)/C=C/C(C)=C\C(=O)O (centres unmarked) [ABA, abscisic acid, reference compound]
sub-cellular location of PYL-eGFP [1, 5]: localized out of the nucleus
eGFP expression [2, 6]: induced EGFP production
subcellular location of EGFP-PYL ([3]; not irradiated): exported out of the nucleus; also recorded: markedly decreased intensities of EGFP in the nuclei within 15 minutes
reversibility of EGFP nuclear exportation ([3]; not irradiated): reversed following three washes (within 30 minutes)
dose dependence of gene expression ([4]; increasing dosages, not irradiated): dose-dependent induction of gene expression

CCN(CC)c1ccc2c(COC(=O)/C=C(C)\C=C\[C@@]3(O)C(C)=CC(=O)CC3(C)C)cc(=O)oc2c1 [ABA-DEACM]
EGFP-PYL nuclear export ([3]; 10 μM, 405 nm light irradiation, fixed CHO cells): ability to induce EGFP-PYL nuclear export

COc1cc(COC(=O)/C=C(C)\C=C\[C@@]2(O)C(C)=CC(=O)CC2(C)C)c([N+](=O)[O-])cc1OC [ABA-DMNB]
eGFP expression [2, 6]: did not induce EGFP expression
eGFP expression ([2]; 10 μM, pre-irradiated (pre-photocleaved) products, eight hours): induced EGFP production
eGFP expression ([2]; irradiated in cell culture, 365 nm): showed EGFP expression
subcellular location of EGFP-PYL ([3]; 365 nm UV irradiation 60 seconds): exported out of the nucleus; also recorded: markedly decreased intensities of EGFP in the nuclei within 15 minutes
reversibility of EGFP nuclear exportation ([3]; after UV irradiation): reversed following three washes (within 30 minutes)
subcellular location of EGFP-PYL ([3]; not irradiated): EGFP distribution throughout the whole cells
subcellular location of EGFP-PYL ([3]; not irradiated, listed as ABADMNB): distributed throughout the cell
dose dependence of luciferase expression ([4]; increasing concentrations, with irradiation): corresponding increases in the level of luciferase expression
luciferase expression ([4]; irradiated 365 nm UV 120 seconds in cell culture, twelve hours): induced luciferase expression

CC1=CC(=O)CC(C)(C)[C@@]1(O)/C=C/C(C)=C\C(=O)OCc1ccc(B2OC(C)(C)C(C)(C)O2)cc1 [ABA-HP]
sub-cellular location of PYL-eGFP ([1]; 10 μM plus 10 eq of H2O2, CHO cells): caused rapid nuclear export
sub-cellular location of PYL-eGFP [1, 5]: did not change the sub-cellular location of eGFP-PYL
